According to patent US20240382490A1, “QUINAZOLINE-THIOHYDANTOIN FUSED HETEROCYCLES WHICH ARE SUITABLE FOR TREATING, AMELIORATING OR PREVENTING A PROLIFERATIVE DISORDER” (FRIEDRICH-ALEXANDER-UNIVERSITÄT ERLANGEN NÜRNBERG, priority 2021, published 2024):
Read-outs that look alike come from different tables or passages of the source.

Key:
wild-type CCRF CEM cells [1] = test: IC50 in sensitive wild-type CCRF CEM leukemia cells; assay type: cell-based, human
[2] = system: multidrug resistant P glycoprotein-overexpressing CEM/ADR5000 cells; test: IC50 in multidrug resistant CEM/ADR5000 leukemia cells; assay type: cell-based, human
healthy human cells = test: IC50 in healthy cells (selectivity); assay type: cell-based; settings: for Activity against healthy cells relative to CEM/ADR5000 cells: healthy cells IC50 compared with CEM/ADR5000 IC50; for IC50: healthy human cells
RPMI-8226 cells = test: CellTiter-Blue cell viability assay, RPMI-8226; assay type: cell-based; settings: five dose (0.01, 0.1, 1, 10, 100 μM) screening, 48 h treatment
Method: (§1) All leukemia cell lines (RPMI-8226, K562, HL-60, and MOLT-4) were obtained from NCI-DTP, NCI-Frederick, USA. Cells were cultured and maintained in RPMI-1640 (Corning, USA; #10-040-CV) media supplemented with 10% FBS (Corning, USA; #35-015-CV) and 1% penicillin-streptomycin-amphotericin B (GIBCO, USA; #15240-062) at 37° C. with 5% CO2. At 70 to 80% confluence cells were harvested and plated for cell viability assay.
(§2) Each leukemia cell line was plated at 3000 cells/well (in 100 μL complete media) in black-clear bottom 96-well plates (Corning, USA; #3603). After 24 h, cells were treated with respective compounds at one dose (10 μM) or five dose (0.01, 0.1, 1, 10, 100 μM) concentrations. After 48 h treatment, cell viability was recorded using CellTiter-Blue cell viability assay (Promega, USA; #G8081) as per the manufacturer's protocol.

K562 cells = test: CellTiter-Blue cell viability assay, K562; assay type: cell-based; settings: for IC50: five dose (0.01, 0.1, 1, 10, 100 μM) screening, 48 h treatment
Method: as §1, §2

HL-60 cells = test: CellTiter-Blue cell viability assay, HL-60; assay type: cell-based; settings: for IC50: five dose (0.01, 0.1, 1, 10, 100 μM) screening, 48 h treatment
Method: as §1, §2

MOLT-4 cells = test: CellTiter-Blue cell viability assay, MOLT-4; assay type: cell-based; settings: five dose (0.01, 0.1, 1, 10, 100 μM) screening, 48 h treatment
Method: as §1, §2

MRTF-A = MRTF-A nuclear localization in HAP1 cells; assay type: cell-based; settings: human leukemia cell line HAP1, FIG. 4
Method: (§3) Quinazoline-thiohydantoin fused heterocycles 5g and 5k were to tested to determine whether they can inhibit MRTF-A nuclear localization to overcome resistance. First the localization of MRTF-A in a human leukemia cell line (HAP1) was analyzed. […] It was also tested whether 5g can activate cellular senescence.

[3] = system: human leukemia cell line (HAP1); test: Cellular senescence in HAP1 cells; assay type: cell-based; settings: mediated by oncogene Ras and downstream MAPK/pRb pathways, FIG. 4
Method: as §3

wild-type CCRF CEM cells [4] = settings: sensitive wild-type CCRF CEM cells; previously reported (NPL-9, NPL-10), footnote calls them EC50; cited from earlier work
[5] = system: multidrug resistant P glycoprotein-overexpressing CEM/ADR5000 cells; settings: previously reported (NPL-9, NPL-10), footnote calls them EC50; cited from earlier work
human fibroblasts = settings: normal tissue cell line (human fibroblasts), NPL-11; read-out: Healthy cells IC50 (overall IC50 in human fibroblasts); cited from earlier work
human endometrium cells = settings: NPL-12, read-out: Healthy cells IC50 (human endometrium cells); cited from earlier work
[6] = one dose (10 μM), 48 h, FIG. 5A

SMILES | IC50 (wild-type CCRF CEM cells [1]) [µM] | IC50 [2] [µM] | IC50 (healthy human cells) [µM] | other results
C[C@H](c1ccccc1)N1C(=O)C2=Nc3cc([N+](=O)[O-])ccc3CN2C1=S [Compound 5d] | 0.14 ± 0.028 | 0.127 ± 0.019 | 2.5 ± 0.8 | Activity against healthy cells relative to CEM/ADR5000 cells (healthy human cells): fifteen to twenty times lower activity
CC(c1ccccc1)N1C(=O)C2=Nc3cccc(Cl)c3CN2C1=S (stereo not drawn) [Compound 5g] | 0.125 ± 0.024 | 0.146 ± 0.015 | 2.8 ± 0.6 | Activity against healthy cells relative to CEM/ADR5000 cells (healthy human cells): fifteen to twenty times lower activity; IC50 (RPMI-8226 cells): 15 ± 1.39 µM; IC50 (K562 cells): 7.8 ± 0.63 µM; One dose cell viability screening, K562 (K562 cells; [6]): more active compared to 5k; IC50 (HL-60 cells): 9.9 ± 0.71 µM; One dose cell viability screening, HL-60 (HL-60 cells; [6]): more active compared to 5k; IC50 (MOLT-4 cells): 18.5 ± 2.17 µM; Effect on MRTF-A nuclear localization (MRTF-A): efficiently increased cytoplasmic MRTF-A nuclear localization; Activation of cellular senescence [3]: able to provoke a senescence response
COc1cccc2c1C(=O)c1c(O)c3c(c(O)c1C2=O)C[C@@](O)(C(=O)CO)C[C@@H]3O[C@H]1C[C@H](N)[C@H](O)[C@H](C)O1 [Doxorubicin, doxorubicin] |  |  |  | IC50 (wild-type CCRF CEM cells [4]): 0.009 µM; IC50 [5]: 23.3 µM; IC50 (human fibroblasts): 1.8 µM
O=C1C2=Nc3ccccc3CN2C(=S)N1c1ccc([N+](=O)[O-])cc1 [Compound 3a] | 27.8 ± 2.6 | 26.8 ± 1.67 | 19.8 ± 4.8 | 
CC(c1ccccc1)N1C(=O)C2=Nc3ccc(Cl)cc3CN2C1=S (stereo not drawn) [Compound 5e] | 0.375 ± 0.043 | 0.295 ± 0.083 | 2.4 ± 0.5 | 
COc1ccc2c(c1)CN1C(=S)N(C(C)c3ccccc3)C(=O)C1=N2 (stereo not drawn) [Compound 5k] | 1.53 ± 0.148 | 1.33 ± 0.247 | 1.9 ± 0.4 | IC50 (RPMI-8226 cells): 14 ± 2.43 µM; IC50 (K562 cells): 24.7 ± 4.01 µM; IC50 (HL-60 cells): 41.1 ± 3.12 µM; IC50 (MOLT-4 cells): 28.7 ± 2.08 µM
CC(c1ccccc1)N1C(=O)C2=Nc3cc(Cl)ccc3CN2C1=S (stereo not drawn) [Compound 5f] | 0.228 ± 0.022 | 0.156 ± 0.013 | 2.3 ± 0.7 | Activity against healthy cells relative to CEM/ADR5000 cells (healthy human cells): fifteen to twenty times lower activity
COc1cccc(N2C(=O)C3=Nc4ccccc4CN3C2=S)c1 [Compound 3j] | 28.1 ± 0.831 | 28.1 ± 0.972 | 42.8 ± 6.1 | 
CC(c1ccccc1)N1C(=O)C2=Nc3ccc(Br)cc3CN2C1=S (stereo not drawn) [Compound 5a] | 0.483 ± 0.025 | 0.409 ± 0.028 | 2.2 ± 0.2 | 
C[C@@H]1CC[C@H]2[C@@H](C)C(=O)O[C@@H]3O[C@@]4(C)CC[C@@H]1[C@]32OO4 [Artemisinin, artemisinin] |  |  |  | IC50 (wild-type CCRF CEM cells [4]): 36.9 ± 6.9 µM; IC50 [5]: 26.9 ± 4.4 µM; IC50 (human endometrium cells): 69.6 µM
CC(C)c1cccc(C(C)C)c1N1C(=O)C2=Nc3ccccc3CN2C1=S [Compound 3l] | 25.1 ± 6.49 | 19.1 ± 7.1 | 30.5 ± 0.5 | 
